Experimental data published in US20120190666A1, “Heteroaryl Compounds as PIKK Inhibitors” (Amgen Inc., priority 2009, published 2012).

target: T1, PI3Kα (Homo sapiens, UniProt P42336); assay: In vitro PI3K AlphaScreen assay, PI3Kα; type: biochemical; settings: PI(4,5)P2 substrate, 20 minutes at room temperature, read-out: P13Kalpha IC50 um
T1 construct: Full length p110 subunits of PI3K α, β and δ, N-terminally labeled with polyHis tag; polyHis (N); made in house; host or cells: Sf9 insect cells (baculovirus)
T1 sequence (P42336 whole entry): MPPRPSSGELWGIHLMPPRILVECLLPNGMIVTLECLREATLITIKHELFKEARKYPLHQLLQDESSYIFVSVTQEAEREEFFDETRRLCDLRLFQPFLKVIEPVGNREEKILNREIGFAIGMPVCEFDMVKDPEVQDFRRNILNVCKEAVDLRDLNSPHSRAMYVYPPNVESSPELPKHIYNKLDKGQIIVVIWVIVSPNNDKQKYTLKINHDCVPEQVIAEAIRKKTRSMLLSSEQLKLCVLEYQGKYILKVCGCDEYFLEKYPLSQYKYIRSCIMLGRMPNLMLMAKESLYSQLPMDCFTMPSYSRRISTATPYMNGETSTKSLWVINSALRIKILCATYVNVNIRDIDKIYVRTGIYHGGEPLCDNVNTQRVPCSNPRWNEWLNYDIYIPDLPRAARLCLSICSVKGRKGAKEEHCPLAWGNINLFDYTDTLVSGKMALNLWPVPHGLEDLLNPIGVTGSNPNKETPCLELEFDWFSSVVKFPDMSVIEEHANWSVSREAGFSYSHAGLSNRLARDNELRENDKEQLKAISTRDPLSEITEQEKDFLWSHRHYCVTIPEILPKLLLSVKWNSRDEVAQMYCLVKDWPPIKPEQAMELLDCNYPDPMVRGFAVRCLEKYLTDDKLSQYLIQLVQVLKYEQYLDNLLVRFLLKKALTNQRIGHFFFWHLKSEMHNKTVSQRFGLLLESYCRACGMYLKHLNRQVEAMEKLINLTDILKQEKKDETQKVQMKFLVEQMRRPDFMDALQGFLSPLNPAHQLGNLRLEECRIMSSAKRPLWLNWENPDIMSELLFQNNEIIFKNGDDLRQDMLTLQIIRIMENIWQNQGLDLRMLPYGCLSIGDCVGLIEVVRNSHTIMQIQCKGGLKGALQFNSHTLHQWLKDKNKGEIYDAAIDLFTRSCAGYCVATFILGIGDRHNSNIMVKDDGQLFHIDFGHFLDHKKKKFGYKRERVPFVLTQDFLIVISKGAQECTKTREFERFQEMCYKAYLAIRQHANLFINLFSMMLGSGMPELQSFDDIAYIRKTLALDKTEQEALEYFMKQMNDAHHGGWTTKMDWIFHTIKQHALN
T1 sequence (P27986 whole entry partner): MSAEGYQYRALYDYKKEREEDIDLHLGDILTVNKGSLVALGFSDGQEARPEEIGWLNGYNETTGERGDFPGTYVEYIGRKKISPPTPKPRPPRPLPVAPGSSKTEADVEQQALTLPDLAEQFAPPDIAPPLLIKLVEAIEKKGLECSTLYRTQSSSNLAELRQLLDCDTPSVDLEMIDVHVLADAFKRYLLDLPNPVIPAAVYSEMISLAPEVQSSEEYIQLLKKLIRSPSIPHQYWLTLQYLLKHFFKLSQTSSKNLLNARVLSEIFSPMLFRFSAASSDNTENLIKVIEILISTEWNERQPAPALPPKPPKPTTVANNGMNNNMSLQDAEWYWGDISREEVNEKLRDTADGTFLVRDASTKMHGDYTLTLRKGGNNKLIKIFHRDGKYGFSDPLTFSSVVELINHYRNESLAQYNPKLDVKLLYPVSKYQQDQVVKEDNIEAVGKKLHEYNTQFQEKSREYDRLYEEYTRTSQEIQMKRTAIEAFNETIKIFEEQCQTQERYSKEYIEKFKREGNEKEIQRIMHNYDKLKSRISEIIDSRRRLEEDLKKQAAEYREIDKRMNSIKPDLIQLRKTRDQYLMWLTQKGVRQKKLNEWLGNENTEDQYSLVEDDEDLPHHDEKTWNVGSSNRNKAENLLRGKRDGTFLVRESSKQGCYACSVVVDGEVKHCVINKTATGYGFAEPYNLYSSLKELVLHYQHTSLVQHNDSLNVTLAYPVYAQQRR
Method in brief: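 PI3Kα at 1.6 nM (2× stock) with PI(4,5)P2 10 μM and ATP 20 μM (2× stocks) in Tris pH 7, MgCl2, cholate, NaCl, DTT; 20 min at room temperature. Quenched with biotin-IP4/streptavidin-Donor beads, then GST-PIP3-binding protein/anti-GST Acceptor beads, 1.5 h dark; PIP3 formation read as loss of AlphaScreen signal.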

Compound | IC50
Cc1nc(NC(=O)N2CCN(C)CC2)cc(-c2c(Nc3cc[nH]n3)nc3cccnn23)n1 [Cpd 77, 4-methyl-N-(2-methyl-6-(2-(1H-pyrazol-3-ylamino)imidazo[1,2-b]pyridazin-3-yl)-4-pyrimidinyl)-1-piperazinecarboxamide] | 15300 nM
Cc1nc(NCC#N)cc(-c2c(Nc3cc[nH]n3)nc3cccnn23)n1 [Cpd 90] | 590 nM
Cc1nc(NC(=O)CN(C)C)cc(-c2c(Nc3ccn(C)n3)nc3cccnn23)n1 [Cpd 92] | 20100 nM
Cc1nc(N)nc(-c2c(Nc3cc[nH]n3)nc3ccc(C4=CCN(C(=O)OC(C)(C)C)CC4)cn23)n1 [Cpd 97, tert-butyl 4-(3-(4-amino-6-methyl-1,3,5-triazin-2-yl)-2-(1H-pyrazol-3-ylamino)imidazo[1,2-a]pyridin-6-yl)-3,6-dihydro-1(2H)-pyridinecarboxylate] | 350 nM
CNC(=O)c1ccc(-c2ccc3nc(Nc4cc[nH]n4)c(-c4nc(C)nc(N)n4)n3c2)cc1F [Cpd 99, 4-(3-(4-amino-6-methyl-1,3,5-triazin-2-yl)-2-(1H-pyrazol-3-ylamino)imidazo[1,2-a]pyridin-6-yl)-2-fluoro-N-methylbenzamide] | 110 nM
CC(=O)NCc1ccc(-c2ccc3nc(Nc4cc[nH]n4)c(-c4nc(C)nc(N)n4)n3c2)cc1 [Cpd 100, N-(4-(3-(4-amino-6-methyl-1,3,5-triazin-2-yl)-2-(1H-pyrazol-3-ylamino)imidazo[1,2-a]pyridin-6-yl)benzyl)acetamide] | 420 nM
Cc1nc(N)nc(-c2c(Nc3cc[nH]n3)nc3ccc(-c4ccoc4)cn23)n1 [Cpd 105, 3-(4-amino-6-methyl-1,3,5-triazin-2-yl)-6-(3-furanyl)-N-1H-pyrazol-3-ylimidazo[1,2-a]pyridin-2-amine] | 40 nM
Cc1nc(N)nc(-c2c(Nc3cc[nH]n3)nc3ccc(-c4ccc(F)cc4C)cn23)n1 [Cpd 107, 3-(4-amino-6-methyl-1,3,5-triazin-2-yl)-6-(4-fluoro-2-methylphenyl)-N-1H-pyrazol-3-ylimidazo[1,2-a]pyridin-2-amine] | 250 nM
CSc1cccc(-c2ccc3nc(Nc4cc[nH]n4)c(-c4nc(C)nc(N)n4)n3c2)c1 [Cpd 109, 3-(4-amino-6-methyl-1,3,5-triazin-2-yl)-6-(3-(methylsulfanyl)phenyl)-N-1H-pyrazol-3-ylimidazo[1,2-a]pyridin-2-amine] | 470 nM
CC(=O)Nc1cccc(-c2ccc3nc(Nc4cc[nH]n4)c(-c4nc(C)nc(N)n4)n3c2)c1 [Cpd 114, N-(3-(3-(4-amino-6-methyl-1,3,5-triazin-2-yl)-2-(1H-pyrazol-3-ylamino)imidazo[1,2-a]pyridin-6-yl)phenyl)acetamide] | 100 nM
Cc1nc(N)nc(-c2c(Nc3cc[nH]n3)nc3ccc(-c4cccc(NC(=O)C5CC5)c4)cn23)n1 [Cpd 115, N-(3-(3-(4-amino-6-methyl-1,3,5-triazin-2-yl)-2-(1H-pyrazol-3-ylamino)imidazo[1,2-a]pyridin-6-yl)phenyl)cyclopropanecarboxamide] | 40 nM
Cc1nc(NC(=O)C2CC2)cc(-c2c(Nc3cc[nH]n3)nc3cccnn23)n1 [Cpd 120] | 1000 nM
COCC(=O)Nc1cc(-c2c(Nc3ccn(C)n3)nc3cccnn23)nc(C)n1 [Cpd 123, 2-methoxy-N-(2-methyl-6-(2-((1-methyl-1H-pyrazol-3-yl)amino)imidazo[1,2-b]pyridazin-3-yl)-4-pyrimidinyl)acetamide] | 6930 nM
Cc1nc(NC(=O)CC#N)cc(-c2c(Nc3ccn(C)n3)nc3ccccn23)n1 [Cpd 126, 2-cyano-N-(2-methyl-6-(2-((1-methyl-1H-pyrazol-3-yl)amino)imidazo[1,2-a]pyridin-3-yl)-4-pyrimidinyl)acetamide] | 5340 nM
Cc1nc(NC(=O)CC(F)(F)F)cc(-c2c(Nc3ccn(C)n3)nc3cccnn23)n1 [Cpd 134, 3,3,3-trifluoro-N-(2-methyl-6-(2-((1-methyl-1H-pyrazol-3-yl)amino)imidazo[1,2-b]pyridazin-3-yl)-4-pyrimidinyl)propanamide] | 2080 nM
Cc1nc(Nc2ccc(N3CCOC(C)C3)nn2)cc(-c2c(Nc3cc[nH]n3)nc3cccnn23)n1 (centres unmarked) [Cpd 140, 3-(2-methyl-6-((6-(2-methyl-4-morpholinyl)-3-pyridazinyl)amino)-4-pyrimidinyl)-N-1H-pyrazol-3-ylimidazo[1,2-b]pyridazin-2-amine] | 60 nM
Cc1nc(N)cc(-c2c(Nc3cccc(N4CCN(C)CC4)c3)nc3cccnn23)n1 [Cpd 151, 3-(6-amino-2-methyl-4-pyrimidinyl)-N-(3-(4-methyl-1-piperazinyl)-phenyl)imidazo[1,2-b]pyridazin-2-amine] | 9520 nM
Cc1nc(N)nc(-c2c(Nc3cc[nH]n3)nc3ccc(Nc4ccncc4)cn23)n1 [Cpd 166] | 5650 nM

Compound | IC50
Cc1nc(N)nc(-c2c(Nc3cc[nH]n3)nc3ccc(-c4ccc5c(c4)CCNC5=O)cn23)n1 [Cpd 175, 6-(3-(4-amino-6-methyl-1,3,5-triazin-2-yl)-2-(1H-pyrazol-3-ylamino)imidazo[1,2-a]pyridin-6-yl)-3,4-dihydro-1(2H)-isoquinolinone] | 140 nM
Cc1nc(N)nc(-c2c(Nc3cc[nH]n3)nc3ccc(-c4ccc(C(=O)O)cc4C)cn23)n1 [Cpd 177, 4-(3-(4-amino-6-methyl-1,3,5-triazin-2-yl)-2-(1H-pyrazol-3-ylamino)imidazo[1,2-a]pyridin-6-yl)-3-methylbenzoic acid] | 80 nM
Cc1nc(N)nc(-c2c(Nc3cc[nH]n3)nc3cc(C4=CCN(C(=O)OC(C)(C)C)CC4)ccn23)n1 [Cpd 183, tert-butyl 4-(3-(4-amino-6-methyl-1,3,5-triazin-2-yl)-2-(1H-pyrazol-3-ylamino)imidazo[1,2-a]pyridin-7-yl)-3,6-dihydro-1(2H)-pyridinecarboxylate] | 50 nM
COCCOc1ccn2c(-c3nc(C)nc(N)n3)c(Nc3cc[nH]n3)nc2c1 [Cpd 185, 3-(4-amino-6-methyl-1,3,5-triazin-2-yl)-7-(2-methoxyethoxy)-N-1H-pyrazol-3-ylimidazo[1,2-a]pyridin-2-amine] | 700 nM
Cc1nc(N)nc(-c2c(Nc3cc[nH]n3)nc3cc(OCCN4CCCC4)ccn23)n1 [Cpd 188] | 7010 nM
Cc1nc(N)nc(-c2c(Nc3ccn(C(=O)Nc4ccccc4)n3)nc3ccccn23)n1 [Cpd 204, 3-((3-(4-amino-6-methyl-1,3,5-triazin-2-yl)imidazo[1,2-a]pyridin-2-yl)amino)-N-phenyl-1H-pyrazole-1-carboxamide] | 3000 nM
Cc1nc(N)nc(-c2c(Nc3cnn(C(=O)Oc4ccccc4)c3)nc3ccccn23)n1 [Cpd 209, phenyl 4-((3-(4-amino-6-methyl-1,3,5-triazin-2-yl)imidazo[1,2-a]pyridin-2-yl)amino)-1H-pyrazole-1-carboxylate] | 830 nM
Cc1nc(N)cc(-c2c(Nc3ccn(-c4ccccn4)n3)nc3ccccn23)n1 [Cpd 216, 3-(6-amino-2-methyl-4-pyrimidinyl)-N-(1-(2-pyridinyl)-1H-pyrazol-3-yl)imidazo[1,2-a]pyridin-2-amine] | 1370 nM
Cc1nc(N)cc(-c2c(Nc3ccn(C(=O)NCc4ccccc4)n3)nc3ccccn23)n1 [Cpd 222, 3-((3-(6-amino-2-methyl-4-pyrimidinyl)imidazo[1,2-a]pyridin-2-yl)amino)-N-benzyl-1H-pyrazole-1-carboxamide] | 1200 nM
Cc1nc(N)cc(-c2c(Nc3ccn(C(=O)Nc4ccccc4C(F)(F)F)n3)nc3cccnn23)n1 [Cpd 239, 3-((3-(6-amino-2-methyl-4-pyrimidinyl)imidazo[1,2-b]pyridazin-2-yl)amino)-N-(2-(trifluoromethyl)phenyl)-1H-pyrazole-1-carboxamide] | 3010 nM
Cc1nc(N)cc(-c2c(Nc3ccn(C(=O)Nc4cc(F)cc(F)c4)n3)nc3cccnn23)n1 [Cpd 242, 3-((3-(6-amino-2-methyl-4-pyrimidinyl)imidazo[1,2-b]pyridazin-2-yl)amino)-N-(3,5-difluorophenyl)-1H-pyrazole-1-carboxamide] | 2320 nM
Cc1nc(N)cc(-c2c(Nc3ccnn3C(=O)N3CCC3)nc3cccnn23)n1 [Cpd 257, 3-(6-amino-2-methyl-4-pyrimidinyl)-N-(1-(1-azetidinylcarbonyl)-1H-pyrazol-5-yl)imidazo[1,2-b]pyridazin-2-amine] | 46500 nM
COc1ccc(-c2ccc3nc(Nc4ccn[nH]4)c(-c4nc(C)nc(N)n4)n3c2)cc1CO [Cpd 286] | 130 nM
Cc1nc(N)nc(-c2c(Nc3ccn[nH]3)nc3ccc(CCC(O)CO)cn23)n1 (centres unmarked) [Cpd 291, 4-(3-(4-amino-6-methyl-1,3,5-triazin-2-yl)-2-(1H-pyrazol-5-ylamino)-midazo[1,2-a]pyridin-6-yl)-1,2-butanediol] | 170 nM
Cc1nc(N)nc(-c2c(Nc3cc[nH]n3)nc3ccc(-c4ccc(S(C)(=O)=O)cc4)cn23)n1 [Cpd 344, 3-(4-amino-6-methyl-1,3,5-triazin-2-yl)-6-(4-(methylsulfonyl)phenyl)-N-1H-pyrazol-3-ylimidazo[1,2-a]pyridin-2-amine] | 70 nM
CNS(=O)(=O)c1ccc(-c2ccc3nc(Nc4cc[nH]n4)c(-c4nc(C)nc(N)n4)n3c2)cc1 [Cpd 351, 4-(3-(4-amino-6-methyl-1,3,5-triazin-2-yl)-2-(1H-pyrazol-3-ylamino)imidazo[1,2-a]pyridin-6-yl)-N-methylbenzenesulfonamide] | 480 nM
Cc1nc(N)nc(-c2c(Nc3ccn(C)n3)nc3ccc(-c4ccc(S(C)(=O)=O)cc4)cn23)n1 [Cpd 354] | 770 nM
